Experimental data reported in US11377425B1, “Small molecule modulators of IL-17” (LEO Pharma A/S, priority 2018, dated 2022).

The compounds below were run against T1, human IL-17AA (Homo sapiens, UniProt Q16552) (assay: IL-8 release assay in human epithelial keratinocytes adult (HEKa)). Details: HEKa cells, 3 ng/mL HEK-human IL-17AA + 10 ng/mL human TNFalpha; read-out: Rel EC50 IL-8 release assay.
T1 construct: host or cells: HEK (human embryonic kidney) cells
T1 sequence (Q16552 24-155): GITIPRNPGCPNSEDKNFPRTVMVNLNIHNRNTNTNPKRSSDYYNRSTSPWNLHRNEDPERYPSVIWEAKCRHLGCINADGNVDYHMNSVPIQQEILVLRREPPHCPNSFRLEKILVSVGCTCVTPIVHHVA
Format: cell-based
Method in brief: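 Adult human epidermal keratinocytes stimulated 68-72 h at 37 °C with 3 ng/mL HEK-derived human IL-17AA plus 10 ng/mL TNF-alpha (final) in the presence of compound; TNF-alpha alone defines 100% inhibition. Secreted IL-8 measured by HTRF as percent of controls; relative IC50/Emax from four-parameter fit (r^2>0.9), cytotoxicity by PrestoBlue.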

First: Cc1n[nH]c(CO)c1-c1ccc(NC(=O)[C@@H](NC(=O)c2ccnn2C(C)C)C(C2CC2)C2CC2)cc1 [Example 432, N-[(1S)-1-(Dicyclopropylmethyl)-2-[4-[5-(hydroxymethyl)-3-methyl-1H-pyrazol-4-yl]anilino]-2-oxo-ethyl]-2-isopropyl-pyrazole-3-carboxamide]
Second: Cc1n[nH]c(C)c1-c1ccc(NC(=O)C(NC(=O)c2ccnn2C(C)C)C(C2CC2)C2CC2)cc1 (single isomer, unassigned) [Example 33, N-[1-(dicyclopropylmethyl)-2-[4-(3,5-dimethyl-1H-pyrazol-4-yl)anilino]-2 oxo-ethyl]-2-isopropyl-pyrazole-3-carboxamide]
The EC50 of the first is lower: less than 100 nM for the first, greater than 1000 nM for the second.

First: Cc1[nH]nc(C(C)C)c1-c1ccc(NC(=O)[C@@H](NC(=O)c2ccnn2C(C)C)C(C2CC2)C2CC2)cc1 [Example 386, N-[(1S)-1-(dicyclopropylmethyl)-2-[4-(3-isopropyl-5-methyl-1H-pyrazol-4-yl)anilino]-2-oxo-ethyl]-2-isopropyl-pyrazole-3-carboxamide]
Second: Cc1n[nH]c(C)c1-c1ccc(NC(=O)[C@@H](NC(=O)c2ccnn2CC(C)O)C(C2CC2)C2CC2)cc1 (stereo partly drawn) [Example 388, N-[(1S)-1-(dicyclopropylmethyl)-2-[4-(3,5-dimethyl-1H-pyrazol-4-yl)anilino]-2-oxo-ethyl]-2-(2-hydroxypropyl)pyrazole-3-carboxamide]
The EC50 of the first is lower: less than 100 nM for the first, 100 to 1000 nM for the second. The first is the more potent here.

`Cc1n[nH]c(CO)c1-c1ccc(NC(=O)[C@@H](NC(=O)c2ccnn2C)C(c2ccccc2)c2ccccc2)cc1` [Example 447, N-[(1S)-1-benzhydryl-2-[4-[5-(hydroxymethyl)-3-methyl-1H-pyrazol-4-yl]anilino]-2-oxo-ethyl]-2-methyl-pyrazole-3-carboxamide] and `Cn1cncc1-c1ccc(NC(=O)[C@@H](NC(=O)c2ccnn2C)C(c2ccccc2)c2ccccc2)cc1O` [Example 420, N-[(1S)-1-benzhydryl-2-[3-hydroxy-4-(3-methylimidazol-4-yl)anilino]-2-oxo-ethyl]-2-methyl-pyrazole-3-carboxamide] fall in the same range of EC50: 100 to 1000 nM for the first, 100 to 1000 nM for the second.

`Cc1n[nH]c(C)c1-c1ccc(NC(=O)C(NC(=O)c2ccnn2C)C2CCc3c(F)cccc32)cc1` (single isomer, unassigned) [Example 248] and `Cc1n[nH]c(C)c1-c1ccc(NC(=O)C(NC(=O)c2ccnn2C)C(C)c2ccccc2)cc1` (single isomer, unassigned) [Example 235] cannot be ordered by EC50: greater than 1000 nM for the first, greater than 1000 nM for the second.

First: Cc1n[nH]c(C)c1-c1ccc(NC(=O)[C@@H](NC(=O)c2coc3ccccc23)C2CCCCC2)cc1 [Example 73, N-[(1S)-1-cyclohexyl-2-[4-(3,5-dimethyl-1H-pyrazol-4-yl)anilino]-2-oxo-ethyl]benzofuran-3-carboxamide]
Second: Cc1n[nH]c(C)c1-c1ccc(NC(=O)[C@@H](NC(=O)c2c[nH]c3ncccc23)C2CCCCC2)cc1 [Example 65, N-[(1S)-1-cyclohexyl-2-[4-(3,5-dimethyl-1H-pyrazol-4-yl)anilino]-2-oxo-ethyl]-1H-pyrrolo[2,3-b]pyridine-3-carboxamide]
The EC50 of the first is lower: 100 to 1000 nM for the first, greater than 1000 nM for the second.

Compared with `Cc1n[nH]c(C)c1-c1ccc(NC(=O)[C@H](NC(=O)c2ccnn2C(C)C)C2CCC3(CC2)CC3)cc1` [Example 111, N-[(1R)-2-[4-(3,5-dimethyl-1H-pyrazol-4-yl)anilino]-2-oxo-1-spiro[2.5]octan-6-yl-ethyl]-2-isopropyl-pyrazole-3-carboxamide], `Cc1n[nH]c(C)c1-c1ccc(NC(=O)[C@@H](NC(=O)c2ccnn2C)[C@H]2CCCC3(CC3)C2)cc1` [Example 250, N-[(1S)-2-[4-(3,5-dimethyl-1H-pyrazol-4-yl)anilino]-2-oxo-1-[(7S)-spiro[2.5]octan-7-yl]ethyl]-2-methyl-pyrazole-3-carboxamide] is lower in EC50: greater than 1000 nM for the first, less than 100 nM for the second. The second is the more potent here.

`Cc1n[nH]c(C)c1-c1ccc(NC(=O)[C@@H](NC(=O)c2ccnn2C2CCOC2)C(C2CC2)C2CC2)cc1` (stereo partly drawn) [Example 219, N-[(1S)-1-(dicyclopropylmethyl)-2-[4-(3,5-dimethyl-1H-pyrazol-4-yl)anilino]-2-oxo-ethyl]-2-tetrahydrofuran-3-yl-pyrazole-3-carboxamide] and `Cc1[nH]nc(C2CC2)c1-c1ccc(NC(=O)[C@@H](NC(=O)c2ccnn2[C@H](C)CO)C(C2CC2)C2CC2)cc1` [Example 390, N-[(1S)-2,2-dicyclopropyl-1-[[4-(3-cyclopropyl-5-methyl-1H-pyrazol-4-yl)phenyl]carbamoyl]ethyl]-2-[(1R)-2-hydroxy-1-methyl-ethyl]pyrazole-3-carboxamide] cannot be ordered by EC50: less than 100 nM for the first, less than 100 nM for the second.

Compared with `Cc1n[nH]c(C)c1-c1ccc(NC(=O)[C@@H](NC(=O)c2ccnn2C)C2C(C)(C)C2(C)C)cc1` [Example 245, N-[(1S)-2-[4-(3,5-dimethyl-1H-pyrazol-4-yl)anilino]-2-oxo-1-(2,2,3,3-tetramethylcyclopropyl)ethyl]-2-methyl-pyrazole-3-carboxamide], `Cc1n[nH]c(C)c1-c1ccc(NC(=O)[C@H](Cc2ccc(O)cc2)NC(=O)c2ccnn2C)cc1` [Example 45, N-[(1S)-2-[4-(3,5-dimethyl-1H-pyrazol-4-yl)anilino]-1-[(4-hydroxyphenyl)methyl]-2-oxo-ethyl]-2-methyl-pyrazole-3-carboxamide] is higher in EC50: 100 to 1000 nM for the first, greater than 1000 nM for the second. The first is the more potent here.

Compared with `Cc1n[nH]c(C)c1-c1ccc(NC(=O)[C@@H](NC(=O)N2CCCCC2)C2CCCCC2)cc1` [Example 472, N-[(1S)-1-cyclohexyl-2-[4-(3,5-dimethyl-1H-pyrazol-4-yl)anilino]-2-oxo-ethyl]piperidine-1-carboxamide], `Cc1n[nH]c(C)c1-c1ccc(NC(=O)[C@@H](NC(=O)N2CCCCC2CCCO)C2CCCCC2)cc1` (single isomer, unassigned) [Example 460] is lower in EC50: greater than 1000 nM for the first, 100 to 1000 nM for the second. The second is the more potent here.

`Cc1n[nH]c(C)c1-c1ccc(NC(=O)[C@@H](NC(=O)C2(F)CC2)C2CCC(F)(F)CC2)cc1` [Example 67, N-[(1S)-1-(4,4-difluorocyclohexyl)-2-[4-(3,5-dimethyl-1H-pyrazol-4-yl)anilino]-2-oxo-ethyl]-1-fluoro-cyclopropanecarboxamide] and `Cc1n[nH]c(C)c1-c1ccc(NC(=O)[C@@H](NC(=O)c2cnc(C)n2C)C2CCCCC2)cc1` [Example 48, N-[(1S)-1-cyclohexyl-2-[4-(3,5-dimethyl-1H-pyrazol-4-yl)anilino]-2-oxo-ethyl]-2,3-dimethyl-imidazole-4-carboxamide] cannot be ordered by EC50: greater than 1000 nM for the first, greater than 1000 nM for the second.

First: CCn1nccc1C(=O)N[C@H](C(=O)Nc1ccc(-n2cnc(C)c2C)cc1)C(C1CC1)C1CC1 [Example 369, N-[(1S)-1-(dicyclopropylmethyl)-2-[4-(4,5-dimethylimidazol-1-yl)anilino]-2-oxo-ethyl]-2-ethyl-pyrazole-3-carboxamide]
Second: CCn1nccc1C(=O)N[C@H](C(=O)Nc1ccc(-c2c(C)n[nH]c2C)c(O)c1)C(C1CC1)C1CC1 [Example 413, N-[(1S)-1-(dicyclopropylmethyl)-2-[4-(3,5-dimethyl-1H-pyrazol-4-yl)-3-hydroxy-anilino]-2-oxo-ethyl]-2-ethyl-pyrazole-3-carboxamide]
The EC50 of the first is higher: 100 to 1000 nM for the first, less than 100 nM for the second. The second is the more potent here.

Compared with `Cc1n[nH]c(C)c1-c1ccc(NC(=O)C(NC(=O)c2ccnn2CCC(C)O)C2CCCCCCC2)cc1` (single isomer, unassigned) [Example 142, N-[1-cyclooctyl-2-[4-(3,5 dimethyl-1H-pyrazol-4-yl)anilino]-2-oxo-ethyl]-2-(3-hydroxybutyl)pyrazole-3-carboxamide], `Cc1n[nH]c(C)c1-c1ccc(NC(=O)[C@@H](NC(=O)c2ccnn2[C@@H](C)CO)C(C)C2CCC2)cc1` (single isomer, unassigned) [Example 173] is lower in EC50: 100 to 1000 nM for the first, less than 100 nM for the second. The second is the more potent here.

First: Cc1ncn(C)c1-c1ccc(NC(=O)C(NC(=O)c2ccnn2C)C2CCC(F)(F)CC2)cc1 (single isomer, unassigned) [Example 334, N-[1-(4,4-difluorocyclohexyl)-2-[4-(3,5-dimethylimidazol-4-yl)anilino]-2-oxo-ethyl]-2-methyl-pyrazole-3-carboxamide]
Second: CC(C)n1nccc1C(=O)N[C@H](C(=O)Nc1ccc(-c2nncn2C)cc1)C1CCCCC1 [Example 351, N-[(1S)-1-cyclohexyl-2-[4-(4-methyl-1,2,4-triazol-3-yl)anilino]-2-oxo-ethyl]-2-isopropyl-pyrazole-3-carboxamide]
The EC50 of the first is higher: greater than 1000 nM for the first, 100 to 1000 nM for the second. The second is the more potent here.

First: Cc1ncn(C)c1-c1ccc(NC(=O)[C@@H](NC(=O)OC(C)(C)C)C2CCCCC2)cc1 [Example 83, tert-butyl N-[(1S)-1-cyclohexyl-2-[4-(3,5-dimethylimidazol-4-yl)anilino]-2-oxo-ethyl]carbamate]
Second: Cn1cncc1-c1ccc(NC(=O)[C@@H](NC(=O)OC(C)(C)C)C(C2CCCCC2)C2CCCC2)cc1 (single isomer, unassigned) [Example 313]
The EC50 of the first is lower: 100 to 1000 nM for the first, greater than 1000 nM for the second. The first is the more potent here.

Compared with `Cc1n[nH]c(C)c1-c1ccc(NC(=O)[C@@H](NC(=O)OC2CC2)C2CCCCCC2)cc1O` [Example 425, cyclopropyl N-[(1S)-1-cycloheptyl-2-[4-(3,5-dimethyl-1H-pyrazol-4-yl)-3-hydroxy-anilino]-2-oxo-ethyl]carbamate], `Cn1cncc1-c1ccc(NC(=O)[C@@H](NC(=O)OC(C)(C)C)C(C2CCCCC2)C2CCCC2)cc1` (single isomer, unassigned) [Example 312] is higher in EC50: 100 to 1000 nM for the first, greater than 1000 nM for the second.

Compound `CCc1n[nH]c(CC)c1-c1ccc(NC(=O)[C@@H](NC(=O)c2ccnn2[C@@H](C)CO)C(C2CC2)C2CC2)cc1` [Example 394, N-[(1S)-1-(dicyclopropylmethyl)-2-[4-(3,5-diethyl-1H-pyrazol-4-yl)anilino]-2-oxo-ethyl]-2-[(1S)-2-hydroxy-1-methyl-ethyl]pyrazole-3-carboxamide] has an EC50 of less than 100 nM.
